Patent publication US11613531B2, “Inhibitors of RHO associated coiled-coil containing protein kinase” (Kadmon Corporation, LLC, priority 2017, dated 2023)
Read-outs that look alike come from different tables or passages of the source.

Experiments:
[1] = tested on: ppMlc (T18/S19) levels in A7R5 cells; test: A7R5 in-cell ELISA (pMLC); type: cell-based, Rat; conditions: Rattus norvegicus, A7R5, A7R5 cells; for inhibition at 1 µM: 1 μM compound; for inhibition at 1 µM / inhibition at 10 µM: read-out: pMLC % inh A7R5 @ [conc]; for inhibition at 10 µM: 10 μM compound
Procedure, shortened: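 Cellular IC50 came from a nonlinear regression fit of ppMlc (T18/S19) signal, read by colorimetric in-cell ELISA on fixed cells. Rat A7R5 aortic smooth muscle cells had been exposed for 90 min to compounds in 9-point 2-fold serial dilution, 24 h after seeding.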

[2] = molecular target: Recombinant ROCK2 (amino acids 1-552) (Homo sapiens (Human), UniProt O75116); test: Z′-Lyte kinase assay, ROCK2; type: biochemical; conditions: for inhibition at 0.5 µM: 0.5 μM compound; for inhibition at 0.5 µM / inhibition at 1 µM / inhibition at 3 µM: read-out: ROCK2 % inh. @ [conc]; for inhibition at 1 µM: 1 μM compound; for inhibition at 3 µM: 3 μM compound
Sequence of Recombinant ROCK2 (amino acids 1-552) (O75116 1-552): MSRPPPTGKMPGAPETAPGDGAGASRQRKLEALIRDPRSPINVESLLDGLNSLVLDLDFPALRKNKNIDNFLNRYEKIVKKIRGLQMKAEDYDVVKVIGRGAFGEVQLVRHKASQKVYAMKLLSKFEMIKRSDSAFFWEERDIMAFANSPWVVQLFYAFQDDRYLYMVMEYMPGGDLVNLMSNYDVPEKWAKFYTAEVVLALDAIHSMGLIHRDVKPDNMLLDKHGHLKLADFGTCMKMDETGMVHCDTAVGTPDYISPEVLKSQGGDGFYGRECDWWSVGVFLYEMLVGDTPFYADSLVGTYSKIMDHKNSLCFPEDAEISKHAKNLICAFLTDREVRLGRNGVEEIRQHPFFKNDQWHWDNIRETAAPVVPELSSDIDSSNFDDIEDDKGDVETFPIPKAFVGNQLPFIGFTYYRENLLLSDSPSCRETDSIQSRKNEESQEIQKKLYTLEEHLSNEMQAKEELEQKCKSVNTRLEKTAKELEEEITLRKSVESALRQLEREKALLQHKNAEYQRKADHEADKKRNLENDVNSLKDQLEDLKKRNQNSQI
Procedure, shortened: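 IC50s derive from nonlinear curve fits over a 9-point, 2-fold dilution series, with single-point inhibition at 1 μM expressed relative to DMSO. Activity of truncated human ROCK1 (residues 1-535) and ROCK2 (residues 1-552) measured with the Z′-Lyte kinase format.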

[3] = tested on: human ACTA2 gene promoter luciferase reporter in NIH3T3 cells; test: NIH3T3 Acta2-promoter driven-luciferase assay; type: cell-based; conditions: NIH3T3, 24 h, read-out: NIH3T3 Acta2-luc, IC50
Procedure: NIH3T3 Cells Acta2-Promoter Driven-Luciferase Assay.
A NIH3T3 cell line stably expressing a luciferase reporter driven by the human ACTA2 gene promoter (−1000-1 bp) was established (NIH3T3-Acta2-luciferase). The cells were plated to confluence and treated with the test compounds plus TGFβ1 for 24 hr. Cells were then lysed and luciferase activity was measured using the LightSwitch luciferase kit from Active Motif.
(§1) In vitro activities for the compounds were measured with Z′-lyte kinase kit (ThermoFisher Scientific). The percent inhibition rate was calculated by normalizing the kinase activity value obtained with 1 μM compound treatment against DMSO control value and then applied to the formula, [1-(compound/DMSO)]×100%. IC50s were calculated using the nonlinear regression curve fit function of the GraphPad Prism software with kinase activities data measured with 9 points 2-fold serial dilution of compounds treatment. In cell pMLC IC50s were calculated with data obtained from A7R5 cell experiments. A7R5 cells were treated with 9 points 2-fold serial dilution of compounds and ppMlc (T18/S19) levels were determined to calculate cellular IC50 values of the compounds using the nonlinear regression curve fit function of the GraphPad Prism software. NIH3T3 cells stably expressing ACTA2-promoter-driven-luciferase were applied to measure ROCK compounds functional IC50s in cells. Cells were plated in 96 well plates to confluence and treated with 9 points serial dilution of compounds in combination with TGFβ1 for 24 hr. Luciferase activities were measured and compound's IC50s were calculated using the nonlinear regression curve fit function of the GraphPad Prism software.
ROCK inhibitors can be effectively rank ordered by ACTA2-promoter-driven-luciferase reporter cell assay. NIH3T3 cells stably expressing ACTA2-promoter-driven-luciferase were plated in 96 well plates to confluence and treated with 9 points serial dilution of compounds in combination with TGFβ1 for 24 hr. Luciferase activities were measured and compound's IC50s were calculated. By this assay multiple compounds of the invention gave IC50s under 200 nM.

[4] = molecular target: Recombinant ROCK1 (amino acids 1-535) (Homo sapiens (Human), UniProt Q13464); test: Z′-Lyte kinase assay, ROCK1; type: biochemical; conditions: for inhibition at 3 µM: 3 μM compound; for inhibition at 3 µM / inhibition at 0.5 µM: read-out: ROCK1 % inh. @ [conc]; for inhibition at 0.5 µM: 0.5 μM compound
Sequence of Recombinant ROCK1 (amino acids 1-535) (Q13464 1-535): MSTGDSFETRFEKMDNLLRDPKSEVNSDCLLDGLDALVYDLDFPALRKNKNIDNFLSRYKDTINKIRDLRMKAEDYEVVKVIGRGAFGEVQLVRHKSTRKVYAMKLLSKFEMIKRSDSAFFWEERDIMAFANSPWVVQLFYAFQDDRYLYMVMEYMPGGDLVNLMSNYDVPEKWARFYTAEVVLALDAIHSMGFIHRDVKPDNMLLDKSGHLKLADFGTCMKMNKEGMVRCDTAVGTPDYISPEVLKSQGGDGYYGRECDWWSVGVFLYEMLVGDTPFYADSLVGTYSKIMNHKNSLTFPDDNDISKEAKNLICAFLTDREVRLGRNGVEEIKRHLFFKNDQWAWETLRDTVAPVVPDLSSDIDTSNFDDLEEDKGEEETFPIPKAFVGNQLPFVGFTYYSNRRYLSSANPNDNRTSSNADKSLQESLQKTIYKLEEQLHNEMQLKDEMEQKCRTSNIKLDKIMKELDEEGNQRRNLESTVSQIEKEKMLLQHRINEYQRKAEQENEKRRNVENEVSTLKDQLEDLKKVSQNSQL
Procedure: Determination of Compound's ROCK Inhibitory Activity In Vitro (Z'Lyte Assay).
Recombinant ROCK1 (amino acids 1-535) and ROCK2 (amino acids 1-552) proteins were purchased from ThermoFisher Scientific. Compound's activities were measured by Z′-lyte kinase kit (ThermoFisher Scientific) and IC50 was calculated
as §1

[5] = NIH3T3 cells, plus TGFβ1 for 24 hr
[6] = 9 points 2-fold serial dilution

SMILES	IC50 [1] [nM]	IC50 [2] [µM]	IC50 ([3]; with TGFβ1, 24 hr) [µM]	inhibition at 1 µM [1] [%]	inhibition at 10 µM [1] [%]	other results
CCOC(=O)[C@H]1N[C@@H]2C[C@@H]1CN(c1ncc(Cl)c(Nc3ccc4[nH]ncc4c3)n1)C2 (stereo in doubt) [Example 326, Ethyl 3-(4-((1H-indazol-5-yl)amino)-5-chloropyrimidin-2-yl)-3,6-diazabicyclo[3.2.1]octane-7-carboxylate]	6290	0.305	> 10			inhibition at 0.5 µM [2]: 64%
c1cc(-c2ccc(Nc3nc(N4C5CCC4CNC5)nc4c3COCC4)cc2)ccn1 [Example 37, 2-(3,8-diazabicyclo[3.2.1]octan-8-yl)-N-(4-(pyridin-4-yl)phenyl)-7,8-dihydro-5H-pyrano[4,3-d]pyrimidin-4-amine]	7060		> 10			
c1cc(Nc2ccc3[nH]ncc3c2)nc(N2CC[C@@H]3NC[C@@H]3C2)n1 [Example 82, N-(2-((1R,6S)-3,7-diazabicyclo[4.2.0]octan-3-yl)pyrimidin-4-yl)-1H-indazol-5-amine]	572	0.012	3.42	42.5		
Cc1cnc(N2CCNC(C(C)C)C2)nc1Nc1ccc2[nH]ncc2c1 (stereo not drawn) [Example 101, N-(2-(3-isopropylpiperazin-1-yl)-5-methylpyrimidin-4-yl)-1H-indazol-5-amine]					19.2	IC50 [3, 5]: 7.53 µM
Cc1cc(Nc2ccc3[nH]ncc3c2)nc(N2CCNCC(C)C2)n1 (stereo not drawn) [Example 118, N-(6-methyl-2-(6-methyl-1,4-diazepan-1-yl)pyrimidin-4-yl)-1H-indazol-5-amine]				32.9		IC50 ([1]; ppMlc (T18/S19)): 382 nM; inhibition at 1 µM [2]: 95.6%; IC50 [2, 6]: 0.09 µM; IC50 [3, 5]: 3.73 µM
Cc1cc(Nc2ccc3[nH]ncc3c2)nc(N2CC3CNC(C3)C2)n1 (stereo not drawn) [Example 129, N-(2-(3,6-diazabicyclo[3.2.1]octan-3-yl)-6-methylpyrimidin-4-yl)-1H-indazol-5-amine]	377	0.018	2.92	50.6		inhibition at 1 µM [2]: 101%
Cc1cc(Nc2ccc3[nH]ncc3c2)nc(N2CCC3NCC3C2)n1 (stereo not drawn) [Example 135, N-(2-(3,7-diazabicyclo[4.2.0]octan-3-yl)-6-methylpyrimidin-4-yl)-1H-indazol-5-amine]	400	0.0097	2.07	48.4		
Fc1cnc(N2CC3CCC2CN3)nc1Nc1ccc2[nH]ncc2c1 (stereo not drawn) [Example 154, N-(2-(2,5-diazabicyclo[2.2.2]octan-2-yl)-5-fluoropyrimidin-4-yl)-1H-indazol-5-amine]				36.2		IC50 ([1]; ppMlc (T18/S19)): 433 nM; inhibition at 1 µM [2]: 98.5%; IC50 [2, 6]: 0.245 µM; IC50 [3, 5]: 2.91 µM
Fc1cnc(N2CC3CNC(C3)C2)nc1Nc1ccc2[nH]ncc2c1 (stereo not drawn) [Example 166, N-(2-(3,6-diazabicyclo[3.2.1]octan-3-yl)-5-fluoropyrimidin-4-yl)-1H-indazol-5-amine]	259		2.04	34.3		inhibition at 1 µM [2]: 100%
Fc1cnc(N2CCC3CNCC3CC2)nc1Nc1ccc2[nH]ncc2c1 (stereo not drawn) [Example 169, N-(5-fluoro-2-(octahydropyrrolo[3,4-d]azepin-6(1H)-yl)pyrimidin-4-yl)-1H-indazol-5-amine]	395		1.83	30.9		inhibition at 1 µM [2]: 99.5%
CCC1CCN(c2nccc(Nc3ccc(-c4ccncc4)cc3)n2)CCN1 (stereo not drawn) [Example 249, 2-(5-ethyl-1,4-diazepan-1-yl)-N-(4-(pyridin-4-yl)phenyl)pyrimidin-4-amine]					33.6	IC50 [2, 6]: > 1 µM; IC50 [4, 6]: > 1 µM
CC(C)C1CCN(c2nccc(Nc3ccc(-c4ccncc4)cc3)n2)CCN1 (stereo not drawn) [Example 250, 2-(5-isopropyl-1,4-diazepan-1-yl)-N-(4-(pyridin-4-yl)phenyl)pyrimidin-4-amine]					50.4	IC50 ([1]; ppMlc (T18/S19)): 5440 nM; IC50 [2, 6]: > 1 µM; IC50 [4, 6]: > 1 µM
CC(C)C1CN(c2nccc(Nc3ccc(-c4ccncc4)cc3)n2)CCCN1 (stereo not drawn) [Example 251, 2-(3-isopropyl-1,4-diazepan-1-yl)-N-(4-(pyridin-4-yl)phenyl)pyrimidin-4-amine]					66.9	IC50 ([1]; ppMlc (T18/S19)): 614 nM; IC50 [2, 6]: 0.16 µM; IC50 [4, 6]: 0.057 µM
c1ccc(C2CCN(c3nccc(Nc4ccc(-c5ccncc5)cc4)n3)CCN2)cc1 (stereo not drawn) [Example 271, 2-(5-phenyl-1,4-diazepan-1-yl)-N-(4-(pyridin-4-yl)phenyl)pyrimidin-4-amine]					28.3	IC50 [2, 6]: > 1 µM; IC50 [4, 6]: > 1 µM
c1ccc2c(Nc3ccc(-c4ccncc4)cc3)nc(N3CCCNCC3)nc2c1 [Example 272, 2-(1,4-diazepan-1-yl)-N-(4-(pyridin-4-yl)phenyl)quinazolin-4-amine]					53.3	inhibition at 3 µM [2]: 85.8%; inhibition at 3 µM [4]: 88.5%
c1cc(-c2ccc(Nc3ccnc(N4CCCNCC4)n3)cc2)ccn1 [Example 273, 2-(1,4-diazepan-1-yl)-N-(4-(pyridin-4-yl)phenyl)pyrimidin-4-amine]					44.1	inhibition at 3 µM [2]: 85.6%; inhibition at 3 µM [4]: 89.1%
c1cc(-c2ccc(Nc3nc(N4C5CCC4CNC5)nc4c3COC4)cc2)ccn1 [Example 281, 2-(3,8-diazabicyclo[3.2.1]octan-8-yl)-N-(4-(pyridin-4-yl)phenyl)-5,7-dihydrofuro[3,4-d]pyrimidin-4-amine]		2.57		10.4		inhibition at 0.5 µM [2]: 10%; inhibition at 0.5 µM [4]: 14%
c1cc2[nH]ncc2cc1Nc1nc(N2C3CNCC2C3)nc2c1COC2 [Example 283, 2-(3,6-diazabicyclo[3.1.1]heptan-6-yl)-N-(1H-indazol-5-yl)-5,7-dihydrofuro[3,4-d]pyrimidin-4-amine]		< 0.0001		25.8		inhibition at 0.5 µM [2]: 101%; inhibition at 0.5 µM [4]: 101%
c1cc2[nH]ncc2cc1Nc1nc(N2CC3CC2CN3)nc2c1COC2 (stereo not drawn) [Example 284, 2-(2,5-diazabicyclo[2.2.1]heptan-2-yl)-N-(1H-indazol-5-yl)-5,7-dihydrofuro[3,4-d]pyrimidin-4-amine]				24.1		inhibition at 0.5 µM [2]: 30%; inhibition at 0.5 µM [4]: 25%
CN1CCc2c(nc(N3C4CNCC3C4)nc2Nc2ccc3[nH]ncc3c2)C1 [Example 313, 2-(3,6-diazabicyclo[3.1.1]heptan-6-yl)-N-(1H-indazol-5-yl)-7-methyl-5,6,7,8-tetrahydropyrido[3,4-d]pyrimidin-4-amine]	3030	0.014				inhibition at 0.5 µM [2]: 99%; inhibition at 0.5 µM [4]: 94%
CNc1cc(Nc2ccc3[nH]ncc3c2)nc(N2C3CCC2CNC3)n1 [Example 329, 2-(3,8-diazabicyclo[3.2.1]octan-8-yl)-N4-(1H-indazol-5-yl)-N6-methylpyrimidine-4,6-diamine]		0.0018	0.09			
CN(C)c1cc(Nc2cc3cn[nH]c3cc2F)nc(N2C3CCC2CNC3)n1 [Example 331, 2-(3,8-diazabicyclo[3.2.1]octan-8-yl)-N4-(6-fluoro-1H-indazol-5-yl)-N6,N6-dimethylpyrimidine-4,6-diamine]		0.0059	0.318			
c1cncc(-c2cccc(Nc3ccnc(N4CCNCC4)n3)c2)c1 [Example 346, 2-(piperazin-1-yl)-N-(3-(pyridin-3-yl)phenyl)pyrimidin-4-amine]		> 10			12.3	IC50 [4]: > 10 µM
